Results published in US20260256940A1, “MITOCHONDRIA AS A TARGETED DELIVERY PLATFORM” (cellvie AG, priority 2022, published 2026).

System: heart of a pig
Details: in vivo
Protocol: Five milliliters of mitochondria-ssDNA suspension (ssDNA is fluorescently labeled with FAM, and the ssDNA oligo sequence 5′ to 3′ is [sequence]) in conjugation buffer (at a concentration of 1 mg/mL) were directly injected into the heart of the pig. After two hours, the pig was sacrificed, and a small piece of heart tissue where the injection had occurred was cut. The tissue was fixed using formaldehyde, and a histology cut was performed. The tissue was stained with DAPI and rhodamine phalloidin (Thermo Fisher Scientific) to visualize cell nuclei and F-actin networks, respectively. The FAM signal represents the ssDNA signal. A control experiment was prepared by directly injecting naked ssDNA.
An in vivo experiment was conducted to understand the stability of the mitochondria-ssDNA complex inside a tissue or organ after injection. Using a syringe, either the mitochondria-ssDNA complex or naked ssDNA (control) were directly injected into the heart of a pig. Two hours post-injection, the tissue was processed and fluorescently stained using DAPI and rhodamine phalloidin to stain cell nuclei and F-actins, respectively. The samples were analyzed using a fluorescence microscope to visualize nuclei, actin and the FAM-labeled ssDNA.

naked ssDNA: FAM-labeled ssDNA, oligo sequence 5′ to 3′ GCAACAGTGAAGGAAAGCC, injected without mitochondria as control (FAM label, chemistry not fully specified; listed 3' to 5')
ssDNA signal in heart tissue: No ssDNA signal was observed
